In patent US20160280651A1, “COMPOUNDS THAT INDUCE ABA RESPONSES” (THE REGENTS OF THE UNIVERSITY OF CALIFORNIA, priority 2013, published 2016):

What was measured:
[1] = tested on: ABI2 with PYR/PYL receptors; experiment: Receptor-mediated PP2C inhibition assay with ABI2, Example 1; format: biochemical, Arabidopsis; conditions: 10 μM; receptors PYR1, PYL1, PYL2, PYL3 and PYL5
Protocol: FIG. 2A-FIG. 2C. Novel ABA agonists inhibit PPC2 activity through multiple PYR/PYL. (A) Chemical structure of naturally occurring (+)-ABA and selected ABA agonists. (B) and (C) HAB1, ABU, and ABI2 PP2C enzyme activity based ABA-agonist assays for various receptors in the presence or absence of 10 μM each test chemical.
HAB1 and PYL proteins were expressed and purified as described previously (Park S Y, et al. (2009) Abscisic Acid Inhibits Type 2C Protein Phosphatases via the PYR/PYL Family of START Proteins. Science 324(5930):1068-1071), with minor modifications. To obtain GST-HAB1, -ABI1 and -ABI2 fusion proteins, the HAB1 cDNA was cloned into pGex-2T whereas ABI1 and ABI2 cDNAs were cloned into the vector pGex-4T-1. […] After 16 hours incubation at 15° C., cells were harvested and recombinant proteins were purified on glutathione agarose as described previously (Park S Y, et al. (2009). To obtain 6×His-PYL receptor fusion proteins, receptor cDNAs for all 13 ABA receptors were cloned into the vector pET28 and expressed and purified as described previously (Mosquna A, et al. (2011) Potent and selective activation of abscisic acid receptors in vivo by mutational stabilization of their agonist-bound conformation. PNAS 108(51):20838-20843); this yielded soluble and functional protein (assessed using receptor-mediated PP2C inhibition assays) for all receptors except PYL7, PYL11 and PYL12. […]

[2] = tested on: Arabidopsis seedlings; experiment: Root growth and plant growth inhibition of Arabidopsis seedlings; format: in vivo
Protocol: FIG. 6A-FIG. 6C. LC66C6 inhibits plant growth. (A) Photographs showing the effect of ABA, Pyrabactin and LC66C6 on the wild type, abi1-1 and PYR/PYL quadruple mutant Arabidopsis genotypes. (B) Root growth inhibition and (C) plant growth inhibition by ABA, LC66C6 and pyrabactin. Two day old seedlings were transferred on ½×MS plate containing chemicals and phenotypes scored or photographed after a 5-day incubation on test compounds.

[3] = tested on: Arabidopsis plants; experiment: Transpirational water loss of detached leaves; format: in vivo; conditions: 25 μM spray
Protocol: Physiological assays were performed on Arabidopsis plants grown at 22±2° C. and relative humidity (RH) 45±10% under a 16/8-h light/dark cycle. For transpirational water loss analyses in Arabidopsis, plants were pre-treated by aerosol spray of 4 ml solution containing 25 μM compound and 0.05% Tween-20. 12 4-week old plants were sprayed per compound or control analyzed. After overnight pre-treatment with compounds, the aerial portions were detached from roots, and their fresh weight measured at 20 min intervals over a 2 hour time period. To measure stomatal aperture, plants were pre-treated with compounds as described above, covered with plastic lids to maintain high RH and after overnight pre-treatment leaf epidermal impressions were obtained using Suzuki's Universal Micro-Printing (SUMP) method using SUMP impression solution with SUMP B plates (SUMP Laboratory). The leaf impressions were analyzed by light microscopy and stomatal apertures were determined from the pore widths using ImageJ 1.43v software (National Institutes of Health, USA). […] Pots were covered in Parafilm to so that the water loss measured was transpiration mediated. Soil water content % was determined by measuring pot weight and computed by removing dry soil weight from total weight.

[4] = tested on: Arabidopsis plants; experiment: Arabidopsis drought stress assay; format: in vivo; conditions: 25 μM, aerosol every 3 days
Protocol: FIG. 8A-FIG. 8B. Quinabactin confers drought stress tolerance to wild-type plants. (A) Effect of quinabactin on Arabidopsis drought tolerance. Two-week-old plants were subjected to drought stress by withholding water and were photographed after 12 days. During the drought period, plants were treated every 3 days with 25 μM compound. Plants were re-hydrated after 2 weeks drought treatment; the number of surviving plants (out of total number tested) for each treatment is shown next to each image. (B) Effects of quinabactin on soybean. Two-week-old plants were subjected to drought stress by withholding water and photographed after 8 days drought treatment. […]
Physiological assays were performed on Arabidopsis plants grown at 22±2° C. and relative humidity (RH) 45±10% under a 16/8-h light/dark cycle. […] 12 4-week old plants were sprayed per compound or control analyzed. After overnight pre-treatment with compounds, the aerial portions were detached from roots, and their fresh weight measured at 20 min intervals over a 2 hour time period. […] The leaf impressions were analyzed by light microscopy and stomatal apertures were determined from the pore widths using ImageJ 1.43v software (National Institutes of Health, USA). […] Pots were covered in Parafilm to so that the water loss measured was transpiration mediated. […]

CCCN1C(=O)CCc2cc(NS(=O)(=O)Cc3ccc(C)cc3)ccc21 [LC66C6]
PP2C inhibition of ABI2 [1]: > 70% | Inhibition of plant growth ([2]; wild-type and mutant plants): significantly greater than the inhibition by pyrabactin, and comparable to that of (+)-ABA | Inhibition of root elongation ([2]; wild-type, abi1 and quadruple mutant, all concentrations tested): comparable to or slightly more effective than (+)-ABA | Transpirational water loss in detached leaves ([3]; abi1-1 mutant): did not reduce transpirational water loss | Transpirational water loss in detached leaves ([3]; wild-type and aba2 mutant): reduced the amount of transpirational water loss | Drought stress tolerance [4]: confers drought stress tolerance in Arabidopsis plants similar to that conferred by treatment with (+)-ABA
